Experimental findings from patent US20110082203A1, “PROCESS TO DIAGNOSE OR TREAT BRAIN INJURY” (priority 2008, published 2011) are described below.

A short description of assay [1]: Body weight loss after controlled cortical impact (CCI) TBI. Particulars: 5 mg/kg i.p. five minutes prior to TBI. Type of assay: in vivo, rat.
Method: (§1) In vivo model of TBI injury model: A controlled cortical impact (CCI) device is used to model TBI on rats as previously described (Pike et al, 1998). Adult male (280-300 g) Sprague-Dawley rats (Harlan: Indianapolis, Ind.) are anesthetized with 4% isoflurane in a carrier gas of 1:1 O2/N2O (4 min.) and maintained in 2.5% isoflurane in the same carrier gas. Core body temperature is monitored continuously by a rectal thermistor probe and maintained at 37±1° C. by placing an adjustable temperature controlled heating pad beneath the rats. Animals are mounted in a stereotactic frame in a prone position and secured by ear and incisor bars. Following a midline cranial incision and reflection of the soft tissues, a unilateral (ipsilateral to site of impact) craniotomy (7 mm diameter) is performed adjacent to the central suture, midway between bregma and lambda. The dura mater is kept intact over the cortex. Brain trauma is produced by impacting the right (ipsilateral) cortex with a 5 mm diameter aluminum impactor tip (housed in a pneumatic cylinder) at a velocity of 3.5 m/s with a 1.6 mm compression and 150 ms dwell time.
Subjects are administered CCI essentially as described in Example 2 and CSF is prepared as described in Example 4. […] The vehicle-treatment group receives an equal volume i.p. injection of isotonic saline. […]
Assay [2] concerns Fluoro-Jade positive neurons. Kind of assay: Fluoro-Jade staining of degenerating neurons following CCI, counted by optical fractionator. Type of assay: in vivo, rat. The protocol: Fluoro-Jade is used to determine whether the presence of dicyclomine affects cell death following CCI. Experimental procedures are performed as described by Cox, C D, et al. 2008. Briefly, at 24 hours (±1 hr) following the perfusion, brains are rinsed in 0.1M PB (5 minutes×2), cryoprotected in 10% and 30% solutions of sucrose in 0.1M PB for 1 hour and 48 hours, respectively, and stored in the 30% sucrose/PB solution at −80° C. The brains are blocked and sectioned caudorostrally in 45 μm increments from Bregma—1.9 mm to Bregma—4.15 mm using a sliding microtome (American Optical Corp., model 860). The tissue sections are then mounted onto slides using distilled water and allowed to dry. For the Fluoro-Jade staining procedure (Schmued et al., 1997), the sections are rehydrated using successive 5 minute rinses in 100%, 75%, 50%, and 25% ethanol followed by 3 minutes in dH2O, placed in 0.06% KMNO4 for 15 minutes followed by 2 minutes in dH2O, and then stained in 0.0006% Fluoro-Jade B solution in 0.1% acetic acid for 30 minutes. The slides are air-dried overnight, immersed in xylene, and coverslipped with DPX.
The total number of Fluoro-Jade stained cells within the CA2/CA3 region of the dorsal hippocampus for each subject is estimated using the optical fractionator technique (West et al., 1991) with a computer-based system (Stereologer version 1.3, Systems Planning and Analysis, Inc., Alexandria, Va.). The border of the dorsal CA2/3 pyramidal cell layer within each section was outlined using a 2× objective, and the cells are then manually counted at the 40× magnification. For the cortical cell counts, a site of highly localized Fluoro-Jade positivity observed in the cortex adjacent to the site of impact serves as the ROI: the region was outlined at the 2× magnification and cells were quantified at 40× as with the hippocampal region. A numerical estimate of the total number of cells in each region of interest for each subject is calculated by the software using the equation:
Nobj=(N)(1/SSF)(1/ASF)(1/TSF)
Where N represents the sum of all objects counted for the subject, SSF the section sampling fraction, ASF the area sampling fraction, and TSF the thickness sampling fraction.

The subject of assay [3] is α-II spectrin breakdown products (SBDP). Particulars: 5 mg/kg i.p. five minutes prior to TBI.
Method: as §1
Tissue and Sample Preparation: At the appropriate time points (2, 6, 24 hours and 2, 3, 5 days) after injury, animals are anesthetized and immediately sacrificed by decapitation. Brains are quickly removed, rinsed with ice cold PBS and halved. […]

Molecules are shown by their SMILES.

`CCN(CC)CCOC(=O)C1(C2CCCCC2)CCCCC1` [Dicyclomine, dicyclomine]: in assay [1] (mean +/- spread, * p<0.01 vs saline), the “% Body Weight Loss” value is given as “*7.8 +/− 2.08%”. The “Percent body weight loss compared to the saline-treated group” value in assay [1] (p<0.01) was “significantly reduced”. In assay [2] (CA2/CA3 dorsal hippocampus, 24 hours post-TBI, 5 mg/kg i.p., vehicle 2982), the “Mean number of Fluoro-Jade positive neurons, hippocampal ROI” value is 2640. Moreover, in assay [2] (cortex adjacent to impact site, 24 hours post-TBI, 5 mg/kg i.p., vehicle 84392), the “Mean number of Fluoro-Jade positive neurons, cortical ROI” value was found to be 84452. Moreover, the “Effect on neuronal cell viability” value in assay [2] (following TBI) is recorded as “no effect”. Besides, the “Difference in Fluoro-Jade positive neurons between treatment groups (T-test)” value in assay [2] (hippocampal and cortical ROIs, dicyclomine vs vehicle) is “no significant difference”. The “Production of SBDPs in CSF following TBI” value in assay [3] is “inhibits production of SBDPs”.
